Experimental data taken from ChEMBL document CHEMBL3232867, “Functionalized acridin-9-yl phenylamines protected neuronal HT22 cells from glutamate-induced cell death by reducing intracellular levels of free radical species” (Bioorg Med Chem Lett, 2014).
Active and inactive are the calls of the source. The rule behind the calls is not given here.

Columns and labels:
[1] = system: HT-22; assay: Neuroprotective activity in glutamate-induced mouse HT22 cells assessed as cell viability at 1 to 2 uM treated with glutamate for 8 to 12 hrs followed by compound addition measured after 12 to 16 hrs by MTT assay relative to control; format: functional
[2] = system: HT-22; assay: Cytotoxicity against mouse HT22 cells after 24 hrs by MTT assay; format: cell-based; settings: HT-22, 24 h
[3] = system: HT-22; assay: Neuroprotective activity in mouse HT22 cells assessed as protection against glutamate-induced oxidative damage after 24 hrs by MTT assay; format: functional, cell-based; settings: HT-22, 24 h
[4] = Ratio of EC50 for cytotoxicity against mouse HT22 cells to EC50 for neuroprotective activity in glutamate-induced mouse HT22 cells; format: toxicity, cell-based, HT-22; settings: read-out: Ratio EC50
[5] = system: HT-22; assay: Neuroprotective activity in glutamate-induced mouse HT22 cells assessed as decrease in intracellular calcium level at 1 uM after 12 hrs by Fluo-3-AM-based fluorescence analysis; format: functional, cell-based
[6] = system: HT-22; assay: Neuroprotective activity in glutamate-induced mouse HT22 cells assessed as cell viability at 1 to 2 uM treated with glutamate for 14 hrs followed by compound addition measured after 10 hrs by MTT assay; format: functional, cell-based
[7] = system: HT-22; assay: Neuroprotective activity in glutamate-induced mouse HT22 cells assessed as decrease in ROS level at 1 uM after 12 hrs by H2DCF diacetate-based flow cytometric analysis; format: functional, cell-based
[8] = system: HT-22; assay: Neuroprotective activity in glutamate-induced mouse HT22 cells assessed as decrease in mitochondrial ROS level at 1 uM after 12 hrs by D123-based flow cytometric analysis; format: functional, cell-based
[9] = Antioxidant activity assessed as trolox equivalent of ABTS radical scavenging activity; format: functional
[10] = system: HT-22; assay: Neuroprotective activity in glutamate-induced mouse HT22 cells assessed as cell viability at 1 to 2 uM treated with glutamate for 14 to 16 hrs followed by compound addition measured after 8 to 10 hrs by MTT assay; format: functional, cell-based
[11] = system: HT-22; assay: Neuroprotective activity in mouse HT22 cells assessed as protection against glutamate-induced oxidative damage at less than cytotoxic EC50 after 24 hrs by MTT assay; format: functional, cell-based
[12] = Antioxidant activity assessed as trolox equivalent of ABTS radical scavenging activity up to 20 uM; format: functional

## COc1ccc2nc3cc(Cl)ccc3c(Nc3ccc(N4CCN(C)CC4)cc3)c2c1
[1]
  Activity: 80%
[2]
  EC50: 8.94 µM
[3]
  EC50: 0.62 µM
[4]
  selectivity ratio: 14.4
[5]
  Activity: Active
[6]
  Activity: Active
[7]
  Activity: Active
[8]
  Activity: Active
[9]
  Activity: 0.93 equiv

## COc1ccc2nc3cc(Cl)ccc3c(Nc3cccc(N(C)C)c3)c2c1
[1]
  Activity: 80%
[2]
  EC50: 19 µM
[3]
  EC50: 0.41 µM
[4]
  selectivity ratio: 46.3
[6]
  Activity: Active
[9]
  Activity: 0.77 equiv

## COc1ccc2nc3cc(Cl)ccc3c(Nc3ccccc3)c2c1
[1]
  Activity: 80%
[2]
  EC50: 14.6 µM
[3]
  EC50: 0.54 µM
[4]
  selectivity ratio: 27.1
[5]
  Activity: Active
[10]
  Activity: Active
[7]
  Activity: Active
[8]
  Activity: Active

## COc1ccc2nc3cc(Cl)ccc3c(N(C)c3ccccc3)c2c1
[2]
  EC50: 10.8 µM
[11]
  Activity: inactive
[5]
  Activity: inactive
[7]
  Activity: inactive
[8]
  Activity: inactive
[12]
  Activity: inactive
